Experimental data from PMC3057979 (PLoS ONE, 2011).
Where no end group is shown, it is not given here.

Tests used:
[1] = system: CD4^+ T cells of PI-WCV vaccinated C57BL/6 mice; details: 20 h
[2] = molecular target: T1, H-2 I-A^b (purified IA^b MHC class II) (Mus musculus, UniProt P14434+P14483); assay: biochemical; format: binding
T1 construct: endogenous in cells; host or cells: mouse B-cell lymphoma LB27.4
T1 sequence (P14434 24-256): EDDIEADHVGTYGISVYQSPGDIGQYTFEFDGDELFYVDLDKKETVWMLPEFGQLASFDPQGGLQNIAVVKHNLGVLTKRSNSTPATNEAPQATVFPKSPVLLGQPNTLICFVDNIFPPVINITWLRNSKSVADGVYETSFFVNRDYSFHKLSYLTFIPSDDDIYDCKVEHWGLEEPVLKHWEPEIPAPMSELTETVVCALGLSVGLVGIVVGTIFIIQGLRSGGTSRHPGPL
T1 sequence (P14483 28-265): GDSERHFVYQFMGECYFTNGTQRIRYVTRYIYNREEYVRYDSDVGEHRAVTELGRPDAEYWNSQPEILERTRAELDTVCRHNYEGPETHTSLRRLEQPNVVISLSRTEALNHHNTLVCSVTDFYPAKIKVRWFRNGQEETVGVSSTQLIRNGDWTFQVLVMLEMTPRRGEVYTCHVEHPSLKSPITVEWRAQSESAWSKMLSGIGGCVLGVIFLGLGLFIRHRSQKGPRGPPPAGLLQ

[3] = system: CD4^+ T cells of recombinant protein vaccinated C57BL/6 mice; format: cell-based
[4] = system: IgG antibody production against CBU 0383, CBU 1157, CBU 1910; design: species or system C57BL/6 mice; details: mouse, in vivo
[5] = system: CD4^+ T cells of C. burnetii RSA 439 infected C57BL/6 mice; format: cell-based

| Sequence | SI-WCV vaccination [1] | IC50 [2] [nM] | SI-rAgs [3] | IgG antibodies against recombinant proteins after peptide immunization alone [4] | SI-Infection [5] |
| --- | --- | --- | --- | --- | --- |
| LSLMLNYPNSADRYY [CBU 1157_108–122] | 4.83±2.44 | 1040 |  |  |  |
| VHHYLVNHPEVLVEA [CBU 1910_43–57] | 22.73±12.51 |  | 15.9 | did not generate detectable antibodies | 28.27±9.54 |
| DLRYHAPIYGAVHPR [CBU 1157_177–191] | 3.67±1.53 | 193 |  |  |  |
| YVYDSLTTPTASVCQ [CBU1645194-208] | 0.67±0.25 |  | 6 |  | 0.43±0.17 |
| RYHAPIYGAVHPRWL [CBU1157179-193] | 1.97±0.75 |  | 4.37 |  | 2.37±1.05 |
| RLVGSFPAEERIGRT [CBU 1645_272–286] | 3.50±0.96 | 1860 |  |  |  |
| YDSLTTPTASVCQSE [CBU 1645_196–210] | 4.13±1.01 | 620 |  |  |  |
| IRNKLKIQATINNAK [CBU038398-112] | 1.07±0.51 |  | 2.22 |  | 0.43±0.57 |
| RGPWRYIRSFPILAS [CBU115761-75] | 1.87±1.67 |  | 7.17 |  | 0.57±0.34 |
| RYPNEPSRFEPKHID [CBU164510-24] | 2.03±1.27 |  | 2.38 |  | 1.56±1.29 |
| RDSFNNFDASIISKY [CBU 0383_69–83] | 5.33±3.10 | 507 |  |  |  |
| YIWHFVDGHPIQNQW [CBU0383127-141] | 1.33±1.43 |  | 16.22 |  | 0.79±0.28 |
| ENAKKLFNDPASPVA [CBU191079-93] | 0.93±0.84 |  | 5.6 |  | 0.93±0.35 |
| PWRYIRSFPILASSG [CBU 1157_63–77] | 6.80±1.25 | 34 |  |  |  |
| RNNYRDSFNNFDASI [CBU038365-79] | 5.57±1.79 |  | 3.06 |  | 3.25±2.21 |
| AKKLFNDPASPVAGN [CBU191081-95] | 0.63±0.31 |  | 4.8 |  | 0.79±0.44 |
| IRRLVGSFPAEERIG [CBU1645270-284] | 3.10±1.15 |  | 2.7 |  | 1.53±0.74 |
| KLFNDPASPVAGNPH [CBU 1910_83–97] | 3.67±1.12 | 351 |  |  |  |
| DLPAAIVDAIAPQEG [CBU1645138-152] | 0.80±0.62 |  | 3 |  | 0.67±0.34 |
| HYLVNHPEVLVEASQ [CBU 1910_45–59] | 23.77±13.0 | 293 |  |  |  |
